Results published in the SangsterLogP compilation.

`CCCC(CCC)C(=O)OC1N=C(c2ccccc2)c2cc(Cl)ccc2NC1=O` (stereo not drawn) gave a logP of 4.94.
In the case of `CCN(CC)CCN1C(=O)C(O)N=C(c2ccccc2F)c2cc(Cl)ccc21` (stereo not drawn), the logP is reported as 1.89.
For `CC(=O)OC1N=C(c2ccccc2)c2cc(Cl)ccc2N(CCO)C1=O` (stereo not drawn), the logP was 2.45.
`O=C1C(O)N=C(c2ccccc2)c2cc([N+](=O)[O-])ccc2N1CCO` (stereo not drawn) gave a logP of 0.55.
For `O=C1CN=C(c2ccccc2)c2cc(Cl)ccc2N1CC(F)(F)F`, the logP was 3.97.
Molecule `CCN(CC)CCN1C(=O)C(O)N=C(c2ccccc2Cl)c2cc(Cl)ccc21` (stereo not drawn) has a logP of 1.76.
In the case of `O=C(O)CCC(=O)OC1N=C(c2ccccc2)c2cc(Cl)ccc2NC1=O` (stereo not drawn), the logP is reported as 1.5.
With `CC(=O)OCCCN1C(=O)C(OC(C)=O)N=C(c2ccccc2)c2cc(Cl)ccc21` (stereo not drawn) the logP was 3.08.
With `O=C(O)CCC(=O)OCCN1C(=O)C[N+]([O-])=C(c2ccccc2)c2cc(Cl)ccc21` the logP was 0.36.
Molecule `CC(=O)OCCN1C(=O)C(OC(C)=O)N=C(c2ccccc2)c2cc(Cl)ccc21` (stereo not drawn) has a logP of 2.74.
Work on `O=C1C(O)N=C(c2ccccc2)c2cc(Cl)ccc2N1CCO` (stereo not drawn) yielded a logP of 1.53.
`CCN(CC)CCN1C(=O)C(O)N=C(c2ccccc2)c2cc(Cl)ccc21` (stereo not drawn) gave a logP of 1.7.
`O=C1C(O)N=C(c2ccccc2)c2cc(Cl)ccc2N1CCCO` (stereo not drawn) showed a logP of 1.68.
With `COc1cc(C(=O)OC2N=C(c3ccccc3)c3cc(Cl)ccc3NC2=O)cc(OC)c1OC` (stereo not drawn) the logP was 3.75.
Work on `CN1C(=O)C(O)N=C(c2ccccc2Cl)c2cc(Cl)ccc21` (stereo not drawn) yielded a logP of 2.5.
`CCOC1N=C(c2ccccc2)c2cc(Cl)ccc2N(CCCl)C1=O` (stereo not drawn) showed a logP of 3.53.
`CN1C(=O)C(O)N=C(c2ccccc2F)c2cc(Cl)ccc21` (stereo not drawn) showed a logP of 2.09.
Work on `CCOC1N=C(c2ccccc2)c2cc(Cl)ccc2N(CCO)C1=O` (stereo not drawn) yielded a logP of 2.44.
Work on `O=C1C[N+]([O-])=C(c2ccccc2)c2cc(Cl)ccc2N1CCO` yielded a logP of 0.82.
Work on `O=C1Nc2ccc(Cl)cc2C(c2ccccc2F)=NC1O` (stereo not drawn) yielded a logP of 1.81.
Molecule `O=C1C(O)N=C(c2ccccc2Cl)c2cc(Cl)ccc2N1CCO` (stereo not drawn) has a logP of 2.16.
Work on `O=C1C(O)N=C(c2ccccc2F)c2cc(Cl)ccc2N1CCO` (stereo not drawn) yielded a logP of 1.52.
For `CNC(=O)N1C(=O)CN=C(c2ccccc2)c2cc([N+](=O)[O-])ccc21`, the logP was 1.76.
